Laboratory results taken from patent US20250177405A1, “METHODS OF TREATING NEUROLOGICAL AND CARDIOVASCULAR CONDITIONS” (ASTROCYTE PHARMACEUTICALS, INC., priority 2021, published 2025).

Key:
[1] = tested on: photothrombosis-induced stroke in mice; assay: mouse photothrombotic stroke model; assay type: in vivo
Protocol: Photothrombosis-induced Stroke: Photothrombosis is performed as described in Zheng et al 2010 (PloS One 5 (12): e14401). In brief, Rose Bengal is a fluorescent dye that when injected into the vasculature and excited, generates singlet oxygen that damages the endothelial wall and induces a local thrombosis (clot). Using this technique, mice are given a 0.1 mL tail-vein injection of sterilized Rose Bengal (RB, Sigma, U.S.A.) in artificial cerebral spinal fluid (aCSF). The RB concentration is 20 mg/mL. A cortical region is centered in the imaging field and illuminated with a green laser (543 nm, 5 mW) using a 0.8-NA 40× water-immersion objective (Nikon, Tokyo). The clot formation is monitored in real time until the targeted vessel or downstream capillaries are firmly occluded. […]
Animals and Photothrombosis-induced Stroke: Stroke is performed as described in Zheng et al 2010 (PloS One 5 (12): e14401). […] Depth of anesthesia is monitored and regulated according to vital signs, pinch withdrawal and eye blinks. […] Vital signs including oxygen saturation, respiratory rate, and heart rate are continuously monitored by using the MouseOx system (STARR Life Sciences). […]
Post photothrombotic infarction evaluation. The size of cerebral infarcts is evaluated using 2,3,5-Triphenyltetrazolium chloride (TTC) staining as described in Zheng et al 2010 (PloS One 5 (12): e14401). […]

[2] = tested on: brain A1R/A3R; assay: estimated brain receptor occupancy of I-1 in rodent efficacy studies; assay type: in vivo; conditions: mouse and rat efficacy models, from brain unbound drug concentrations
Text: Receptor occupancy is a mass action relationship:
The percentage of a receptor occupied by an agonist or antagonist is a function of the drug concentration and the drug affinity for the receptor target. The challenge is that drug concentrations at the target site (in this case, brain, and CSF) can vary by species, as can affinity for the drug target. Affinity of I-1 for its receptor target can vary by as much as 5-fold between species. Accordingly, for each species, it is necessary to determine the I-1 affinity for its target as well as the concentration of I-1 at each administered dose in a relevant matrix.
In our rodent mouse and rat efficacy studies, we were able to directly determine brain unbound drug concentrations at efficacious doses. In those efficacy models, the estimated receptor occupancies associated with efficacy were around 1% or less.

[3] = neonatal pig pharmacokinetics: CSF versus brain extracellular fluid concentrations; assay type: in vivo; conditions: brain equilibrium dialysis
Text: Using this receptor occupancy estimate, we advanced to studies in neonatal pigs, targeting doses that would yield unbound brain and CSF concentrations that would provide a similar receptor occupancy to that associated with efficacy in the rodent models. In the pig, we had the advantage of conducting pharmacokinetic studies involving CSF collection, brain equilibrium dialysis to directly determine brain unbound extracellular fluid concentrations, plasma concentrations and finally total brain concentrations. […] This was a key study to validate the use of I-1 CSF concentrations to estimate brain receptor occupancy. In the pig efficacy studies, we achieved efficacy at estimated receptor occupancies of around 2%.
Animals. Four-week old female neonatal pigs weighing approximately 7.5 Kg may be used for this study. Animals are equipped with brain microdialysis probes to obtain brain extracellular fluid samples for drug concentration determinations during the study.
Tissue Sampling: Blood samples are obtained at 0.25, 0.5, 1, 2, 4 and 6 hours post-dose. […]
Plasma, brain, brain extracellular fluid and cerebrospinal fluid concentrations of test compound are determined by LC-MS/MS utilizing tolbutamide as an internal standard. For each tissue matrix, standard curves are created and LLOQ/ULOQ concentrations determined.

[4] = plasma protein binding (free fraction); assay type: in vitro ADME; conditions: mouse
Text: Example 3 of U.S. Pat. No. 9,789,131, which is incorporated herein by reference, describes assays for determining the plasma and brain free fraction of certain compounds such as I-1. Compounds described herein may be evaluated using such assays or similar variants thereof.

CSc1nc(N)c2ncn([C@H]3C(O)C(O)[C@]4(CO)C[C@H]34)c2n1 (stereo in doubt) [Compound I-1]
efficacy in presence of the A3 antagonist MRS1523 ([1]; mouse photothrombotic stroke and TBI models): blocked | efficacy in mouse photothrombotic stroke model ([1]; mouse, in vivo): significant efficacy | estimated receptor occupancies associated with efficacy [2]: ≤ 1% | I-1 concentrations in the CSF versus unbound brain extracellular fluid [3]: equal to unbound brain extracellular fluid concentrations | free (unbound) fraction in plasma [4]: 0.74
